From the NIST ThermoML archive (doi:10.1021/je034278t)
± gives the expanded uncertainty stated by the source.

Conditions: Liquid

## CC[S+]([O-])CC [diethyl sulfoxide]
298.15 K
  vapor or sublimation pressure: 0.0202 ± 0.0046 kPa
303.15 K
  vapor or sublimation pressure: 0.0339 ± 0.005 kPa
308.15 K
  vapor or sublimation pressure: 0.0438 ± 0.0054 kPa
313.15 K
  vapor or sublimation pressure: 0.0681 ± 0.0064 kPa
318.15 K
  vapor or sublimation pressure: 0.0924 ± 0.0075 kPa
